Patent EP2518139A1, “Use of indirubin derivatives for producing pluripotent stem cells” (Universitätsklinikum Jena, priority 2011, dated 2012)
Entries after “also recorded” stand apart in the source; their conditions may differ.

What was measured:
[1] = test system: Parp; test: Parp cleavage by immunoblot; type: cell-based; conditions: E738 (1µM), FCS 10% or BMP2 (100ng/mL)
Protocol: The Figures show: • Figure 1: IRDs impacted on the activation of BMP-associated Smad1/5/8 in HeLa and HFF. Phosphorylation of Smad1 (Ser463/465)/5 (Ser463/465)/8 (Ser426/428) and pan Smad1/5/8 were detected by immunoblot after 24h treatment with IRDs as indicated at 1µM or 5µM a) in HeLa with the stimuli of BMP2 (100ng/mL), b) FCS 10%, c) in HFF with the stimuli of BMP2 (100ng/mL) or d) FCS 10%. […] Data were normalized to the value of non-treated cells, show the mean ± SD of quadruplicates and are representative of three independent experiments. […] Total lysates were analyzed by immunoblot using proper antibodies. b) Cell extracts of BMP-treated HeLa cells with or without compounds were subject to immunoblot using p- and pan-Smad1/5/8 antibodies. c) HeLa cells were incubated with or without E738 (1µM) after a 1 h pulse of BMP2, d) or with DM (1µM) and E738 (1µM) for the indicated periods. • Figure 4: R-Smad regulated by E738 in time- and dose-response studies. HeLa cells were treated with BMP2 (100ng/mL) in the presence or absence of E738 (1µM) in a time course study as indicated and analyzed, a) by immunoblot using antibodies against p-Smad1/5/8 at C tail, p-Smad1/5/8 at S206), Smad1/5/8, p-Erk1/2, p-JNK and p-P38 or b) qRT-PCR using primers of ID1 and ID2. […] The expression of Smad1, Smad2, Smad4, Smurf1 and Smurf2 were analyzed by qRT- PCR. […]

[2] = test system: MAPKs (JNK, P38, Erk1/2); test: Immunoblot of phosphorylated MAPKs in HeLa cells; type: cell-based, human; conditions: BMP2 (100ng/mL)
Protocol: Western blot:: Cell extracts were homogenized in Urea-Lysis buffer (1mM EDTA,0.5% Triton X-100), 5mM NaF, 6M Urea, 1mM Na3VO4, 10µg/mL Pepstatin, 100µM PMSF and 3µg/mL Aprotinin in PBS). Enhanced chemiluminescence (ECL) Western blot analysis was performed. 20-40µg of total protein was resolved on 10% SDS-PAGE gels and immunoblotted with specific antibodies. Primary antibodies were incubated at a 1:1,000 dilution in TBS (pH 7.5) with 0.1% Tween-20 and 5% BSA/nonfat milk with gentle agitation overnight at 4°C. The proper secondary antibodies were incubated in TBS (pH 7.5) with 5% BSA/nonfat milk and 0.1 % Tween-20 at a 1:5,000 dilution for 1 h at room temperature.
To assess the effect of E738 on Wnt and Stat3 pathway in mammalian cellular context, HeLa cells were treated with E738 at increasing concentrations for 1 h. Here E804 was used as reference because of its well-known inhibition of Stat3 and Wnt. The antibodies of p-Stat3 and non-phosphorylation-ß-Catenin (NP-ß-Catenin, Ser33/37/Thr41), which can provide a convenient positive band if GSK3B is inhibited, were recruited to substantiated our in vitro results. […] With the stimulation of FCS, we also observed the similar regulation on Stat3 and MAPKs pathways depicted in Fig. 8. […]

COc1ccc2c(c1)C(=C1Nc3ccccc3C1=NOCC(O)CO)C(=O)N2 (stereo not drawn) [E738]
Parp cleavage [1]: induced Parp cleavage
phosphorylations of MAPKs (JNK, P38, Erk1/2) ([2]; 1 h, increasing concentrations): promoted phosphorylations of JNK and P38 at the low concentraions, but not for Erk1/2
p-JNK, p-P38 and pErk1/2 ([2]; 6h after treatment): induced activation of P38; also recorded: clear increases of p-JNK and p-P38 were observed 6h after treatment, but not pErk1/2
